# Assay results from US9469650B2, “Melampomagnolide B derivatives” (BOARD OF TRUSTEES OF THE UNIVERSITY OF ARKANSAS, priority 2013, dated 2016).
# Key:
# [1] = test system: SR; assay: panel of 60 human tumor cell lines, growth inhibition (Leukemia)
# [2] = test system: MDA-MB-468; assay: panel of 60 human tumor cell lines, growth inhibition (Breast Cancer); details: MDA-MB-468
# [3] = test system: HT29; assay: panel of 60 human tumor cell lines, growth inhibition (Colon Cancer); details: HT29
# [4] = test system: NCI-H322M; assay: panel of 60 human tumor cell lines, growth inhibition (Non-Small Cell Lung Cancer)
# [5] = test system: UACC-62; assay: panel of 60 human tumor cell lines, growth inhibition (Melanoma); details: UACC-62
# [6] = test system: UACC-257; assay: as above; details: UACC-257
# [7] = test system: NCI-H23; assay: panel of 60 human tumor cell lines, growth inhibition (Non-Small Cell Lung Cancer); details: NCI-H23
# [8] = test system: OVCAR-3; assay: panel of 60 human tumor cell lines, growth inhibition (Ovarian Cancer); details: OVCAR-3
# [9] = test system: U251; assay: panel of 60 human tumor cell lines, growth inhibition (CNS Cancer); details: U251
smiles,measurement,setting,value
C=C1C(=O)O[C@H]2[C@H]1CC/C(COC(=O)N1CCN(C)CC1)=C\CC[C@@]1(C)O[C@@H]21 [JVM 2-44],GI50,[1],2.81 µM
same,TGI,[1],3.33E−5
same,Mean Optical Densities,[1]; Log10 Concentration −4.0,0.332
same,Percent Growth,[1]; Log10 Concentration −4.0,−14%
same,Mean Optical Densities,[1]; Log10 Concentration −5.0,0.534
same,Percent Growth,[1]; Log10 Concentration −5.0,16%
same,Mean Optical Densities,[1]; Log10 Concentration −6.0,1.105
same,Percent Growth,[1]; Log10 Concentration −6.0,78%
same,Mean Optical Densities,[1]; Log10 Concentration −7.0,1.224
same,Percent Growth,[1]; Log10 Concentration −7.0,91%
same,Mean Optical Densities,[1]; Log10 Concentration −8.0,1.227
same,Percent Growth,[1]; Log10 Concentration −8.0,91%
same,GI50,[2],1.87 µM
same,TGI,[2],8.56E−6
same,Mean Optical Densities,[2]; Log10 Concentration −4.0,0.228
same,Percent Growth,[2]; Log10 Concentration −4.0,−71%
same,Mean Optical Densities,[2]; Log10 Concentration −5.0,0.737
same,Percent Growth,[2]; Log10 Concentration −5.0,−5%
same,Mean Optical Densities,[2]; Log10 Concentration −6.0,1.156
same,Percent Growth,[2]; Log10 Concentration −6.0,66%
same,Mean Optical Densities,[2]; Log10 Concentration −7.0,1.377
same,Percent Growth,[2]; Log10 Concentration −7.0,104%
same,Mean Optical Densities,[2]; Log10 Concentration −8.0,1.328
same,Percent Growth,[2]; Log10 Concentration −8.0,95%
same,GI50,[3],5.54 µM
same,TGI,[3],1.95E−5
same,Mean Optical Densities,[3]; Log10 Concentration −4.0,0.873
same,Percent Growth,[3]; Log10 Concentration −4.0,−70%
same,Mean Optical Densities,[3]; Log10 Concentration −5.0,0.502
same,Percent Growth,[3]; Log10 Concentration −5.0,28%
same,Mean Optical Densities,[3]; Log10 Concentration −6.0,1.268
same,Percent Growth,[3]; Log10 Concentration −6.0,112%
same,Mean Optical Densities,[3]; Log10 Concentration −7.0,1.248
same,Percent Growth,[3]; Log10 Concentration −7.0,110%
same,Mean Optical Densities,[3]; Log10 Concentration −8.0,1.216
same,Percent Growth,[3]; Log10 Concentration −8.0,107%
same,GI50,[4],16.2 µM
same,TGI,[4],5.44E−5
same,Mean Optical Densities,[4]; Log10 Concentration −4.0,0.569
same,Percent Growth,[4]; Log10 Concentration −4.0,−25%
same,Mean Optical Densities,[4]; Log10 Concentration −5.0,1.434
same,Percent Growth,[4]; Log10 Concentration −5.0,70%
same,Mean Optical Densities,[4]; Log10 Concentration −6.0,1.650
same,Percent Growth,[4]; Log10 Concentration −6.0,93%
same,Mean Optical Densities,[4]; Log10 Concentration −7.0,1.624
same,Percent Growth,[4]; Log10 Concentration −7.0,91%
same,Mean Optical Densities,[4]; Log10 Concentration −8.0,1.649
same,Percent Growth,[4]; Log10 Concentration −8.0,93%
same,GI50,[5],6.56 µM
same,TGI,[5],2.14E−5
same,Mean Optical Densities,[5]; Log10 Concentration −4.0,0.089
same,Percent Growth,[5]; Log10 Concentration −4.0,−83%
same,Mean Optical Densities,[5]; Log10 Concentration −5.0,1.284
same,Percent Growth,[5]; Log10 Concentration −5.0,41%
same,Mean Optical Densities,[5]; Log10 Concentration −6.0,2.153
same,Percent Growth,[5]; Log10 Concentration −6.0,89%
same,Mean Optical Densities,[5]; Log10 Concentration −7.0,2.330
same,Percent Growth,[5]; Log10 Concentration −7.0,99%
same,Mean Optical Densities,[5]; Log10 Concentration −8.0,2.369
same,Percent Growth,[5]; Log10 Concentration −8.0,101%
same,GI50,[6],9.93 µM
same,TGI,[6],2.32E−5
same,Mean Optical Densities,[6]; Log10 Concentration −4.0,0.150
same,Percent Growth,[6]; Log10 Concentration −4.0,−86%
same,Mean Optical Densities,[6]; Log10 Concentration −5.0,1.662
same,Percent Growth,[6]; Log10 Concentration −5.0,50%
same,Mean Optical Densities,[6]; Log10 Concentration −6.0,2.046
same,Percent Growth,[6]; Log10 Concentration −6.0,84%
same,Mean Optical Densities,[6]; Log10 Concentration −7.0,2.135
same,Percent Growth,[6]; Log10 Concentration −7.0,92%
same,Mean Optical Densities,[6]; Log10 Concentration −8.0,2.160
same,Percent Growth,[6]; Log10 Concentration −8.0,94%
same,GI50,[7],11.8 µM
same,TGI,[7],3.12E−5
same,Mean Optical Densities,[7]; Log10 Concentration −4.0,0.244
same,Percent Growth,[7]; Log10 Concentration −4.0,−60%
same,Mean Optical Densities,[7]; Log10 Concentration −5.0,1.347
same,Percent Growth,[7]; Log10 Concentration −5.0,58%
same,Mean Optical Densities,[7]; Log10 Concentration −6.0,1.872
same,Percent Growth,[7]; Log10 Concentration −6.0,100%
same,Mean Optical Densities,[7]; Log10 Concentration −7.0,1.838
same,Percent Growth,[7]; Log10 Concentration −7.0,97%
same,Mean Optical Densities,[7]; Log10 Concentration −8.0,1.849
same,Percent Growth,[7]; Log10 Concentration −8.0,98%
same,GI50,[8],3.86 µM
same,TGI,[8],1.59E−5
same,Mean Optical Densities,[8]; Log10 Concentration −4.0,0.031
same,Percent Growth,[8]; Log10 Concentration −4.0,−94%
same,Mean Optical Densities,[8]; Log10 Concentration −5.0,0.743
same,Percent Growth,[8]; Log10 Concentration −5.0,24%
same,Mean Optical Densities,[8]; Log10 Concentration −6.0,1.396
same,Percent Growth,[8]; Log10 Concentration −6.0,87%
same,Mean Optical Densities,[8]; Log10 Concentration −7.0,1.594
same,Percent Growth,[8]; Log10 Concentration −7.0,107%
same,Mean Optical Densities,[8]; Log10 Concentration −8.0,1.551
same,Percent Growth,[8]; Log10 Concentration −8.0,102%
same,GI50,[9],18.7 µM
same,TGI,[9],4.08E−5
same,Mean Optical Densities,[9]; Log10 Concentration −4.0,0.206
same,Percent Growth,[9]; Log10 Concentration −4.0,−58%
same,Mean Optical Densities,[9]; Log10 Concentration −5.0,1.893
same,Percent Growth,[9]; Log10 Concentration −5.0,90%
same,Mean Optical Densities,[9]; Log10 Concentration −6.0,2.002
same,Percent Growth,[9]; Log10 Concentration −6.0,97%
same,Mean Optical Densities,[9]; Log10 Concentration −7.0,2.003
same,Percent Growth,[9]; Log10 Concentration −7.0,97%
same,Mean Optical Densities,[9]; Log10 Concentration −8.0,2.013
same,Percent Growth,[9]; Log10 Concentration −8.0,98%
